Tested on: 70% normal and 30% senescent human dermal fibroblasts
Test: Senolytic activity study (SA-beta-galactosidase, flow cytometry)
Type: cell-based
Details: 1.5 μM, 72 hours
Experimental: Normal and senescent cell populations were obtained from normal human dermal fibroblasts. For the normal cell population, the cells were seeded in cell culture medium (Dulbecco's Modified Eagle Medium supplemented with 10% serum and 1% antibiotics) and allowed to adhere and proliferate in a humidified cell incubator maintaining 37° C. and 5% CO2. These were then passaged or collected when 90% confluent. For the senescent cell population, the normal fibroblast cells were at this stage shortly exposed to 200 μM H2O2 followed by normal cell culture medium. Several days later, the cells were treated again with H2O2 to obtain a fully senescent population. Both normal and senescent populations were mixed into a 70% normal and 30% senescent cell population and represented the treatment population. Afterward, the 70% normal and 30% senescent cell population were seeded in cell culture medium and allowed to adhere in the cell incubator. […] Afterward, senescence-associated beta-galactosidase was visualized—a well-known senescence marker—in the cells to quantify the senescence levels using flow cytometry. […] Data are normalized to the untreated control (30% senescent cells and 70% normal cells) and expressed as the mean±SD (n=4).

Significant senolytic effect (versus CTRL): Yes
Compound: CC1(C)CCC(c2ccc(Cl)cc2)=C(CN2CCN(c3ccc(C(=O)NS(=O)(=O)c4ccc(N[C@H](CCN5CCOCC5)CSc5ccccc5)c(S(=O)(=O)C(F)(F)F)c4)cc3)CC2)C1 [Navitoclax]
Senescent cells (%) (70% normal/30% senescent mix, normalized to untreated control (30%), mean, n=4): 10%

Source: US20260216054A1, “COMPOSITIONS COMPRISING EPILOBIUM FLEISCHERI EXTRACT FOR TREATING SIGNS OF AGING” (DSM IP Assets B.V., priority 2023, published 2026)
